From ChEMBL document CHEMBL5291721, “A preclinical secondary pharmacology resource illuminates target-adverse drug reaction associations of marketed drugs” (Nat Commun, 2023)

Legend:
[1] = target: T1, Alpha-1A adrenergic receptor (Homo sapiens, UniProt P35348); assay type: functional, cell-based
T1 sequence (P35348 whole entry): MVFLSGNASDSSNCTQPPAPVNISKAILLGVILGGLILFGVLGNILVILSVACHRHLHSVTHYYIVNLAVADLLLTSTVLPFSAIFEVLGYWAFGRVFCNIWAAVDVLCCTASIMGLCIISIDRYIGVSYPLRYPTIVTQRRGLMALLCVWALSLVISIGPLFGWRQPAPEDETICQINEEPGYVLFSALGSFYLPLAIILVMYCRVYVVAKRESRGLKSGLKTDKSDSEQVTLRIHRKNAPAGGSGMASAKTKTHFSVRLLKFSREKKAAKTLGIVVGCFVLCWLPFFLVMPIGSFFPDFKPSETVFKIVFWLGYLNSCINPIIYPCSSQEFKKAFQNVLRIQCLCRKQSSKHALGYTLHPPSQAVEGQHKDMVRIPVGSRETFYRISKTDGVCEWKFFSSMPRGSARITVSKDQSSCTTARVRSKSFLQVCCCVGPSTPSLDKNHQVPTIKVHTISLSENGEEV

[2] = target: T2, Alpha-2C adrenergic receptor (Homo sapiens, UniProt P18825); assay type: functional
T2 sequence (P18825 whole entry): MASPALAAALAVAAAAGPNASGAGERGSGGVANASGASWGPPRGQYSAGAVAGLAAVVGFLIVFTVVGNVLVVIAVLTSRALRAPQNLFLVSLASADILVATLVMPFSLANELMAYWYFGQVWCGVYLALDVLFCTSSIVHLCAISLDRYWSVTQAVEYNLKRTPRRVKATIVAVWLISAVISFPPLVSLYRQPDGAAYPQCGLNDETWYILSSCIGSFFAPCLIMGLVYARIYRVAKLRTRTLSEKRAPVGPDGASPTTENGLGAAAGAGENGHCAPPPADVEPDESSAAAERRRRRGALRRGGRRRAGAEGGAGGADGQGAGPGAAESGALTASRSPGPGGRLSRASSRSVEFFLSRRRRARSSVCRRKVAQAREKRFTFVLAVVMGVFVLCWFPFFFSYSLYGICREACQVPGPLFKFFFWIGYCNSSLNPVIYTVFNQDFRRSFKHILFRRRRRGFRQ

[3] = target: Voltage-dependent L-type calcium channel subunit alpha-1C (Rattus norvegicus, UniProt P22002); assay type: functional
[4] = target: Muscarinic acetylcholine receptor M3 (Homo sapiens, UniProt P20309)
Sequence of Muscarinic acetylcholine receptor M3 (P20309 whole entry): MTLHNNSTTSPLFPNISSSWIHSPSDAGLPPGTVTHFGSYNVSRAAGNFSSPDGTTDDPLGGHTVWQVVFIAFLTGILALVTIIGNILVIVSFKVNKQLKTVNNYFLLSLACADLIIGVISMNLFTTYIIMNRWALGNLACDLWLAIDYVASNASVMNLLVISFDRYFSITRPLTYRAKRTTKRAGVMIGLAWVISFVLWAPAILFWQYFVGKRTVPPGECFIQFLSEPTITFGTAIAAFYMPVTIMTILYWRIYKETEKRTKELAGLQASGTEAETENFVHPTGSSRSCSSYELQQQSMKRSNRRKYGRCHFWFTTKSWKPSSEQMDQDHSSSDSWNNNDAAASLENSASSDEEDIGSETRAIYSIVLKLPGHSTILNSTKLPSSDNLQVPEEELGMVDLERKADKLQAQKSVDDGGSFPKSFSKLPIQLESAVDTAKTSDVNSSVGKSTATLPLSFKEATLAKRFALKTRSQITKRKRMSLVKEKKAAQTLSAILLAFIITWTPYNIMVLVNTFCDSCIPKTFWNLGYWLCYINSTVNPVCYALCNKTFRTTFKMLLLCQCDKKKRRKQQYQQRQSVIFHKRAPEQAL

[5] = target: Gamma-aminobutyric acid receptor subunit alpha-1 (Rattus norvegicus, UniProt P62813)
Sequence of Gamma-aminobutyric acid receptor subunit alpha-1 (P62813 whole entry): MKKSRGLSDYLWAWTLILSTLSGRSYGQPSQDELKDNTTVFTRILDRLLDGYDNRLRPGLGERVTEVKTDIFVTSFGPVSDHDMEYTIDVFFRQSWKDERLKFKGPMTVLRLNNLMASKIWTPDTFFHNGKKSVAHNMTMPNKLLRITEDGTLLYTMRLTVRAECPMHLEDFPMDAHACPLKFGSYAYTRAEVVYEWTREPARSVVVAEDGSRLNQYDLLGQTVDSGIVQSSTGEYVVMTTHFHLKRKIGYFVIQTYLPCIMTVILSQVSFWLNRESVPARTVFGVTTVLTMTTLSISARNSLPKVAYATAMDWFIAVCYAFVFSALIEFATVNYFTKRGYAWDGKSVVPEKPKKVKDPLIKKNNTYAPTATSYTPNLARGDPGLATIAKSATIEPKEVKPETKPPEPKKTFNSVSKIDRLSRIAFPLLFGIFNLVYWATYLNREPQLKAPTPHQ

[6] = target: Glutamate receptor ionotropic, NMDA 1 (Rattus norvegicus, UniProt P35439)
Histamine H2 receptor = Histamine H2 receptor (Homo sapiens, UniProt P25021); assay type: functional, cell-based
Sequence of Histamine H2 receptor (P25021 whole entry): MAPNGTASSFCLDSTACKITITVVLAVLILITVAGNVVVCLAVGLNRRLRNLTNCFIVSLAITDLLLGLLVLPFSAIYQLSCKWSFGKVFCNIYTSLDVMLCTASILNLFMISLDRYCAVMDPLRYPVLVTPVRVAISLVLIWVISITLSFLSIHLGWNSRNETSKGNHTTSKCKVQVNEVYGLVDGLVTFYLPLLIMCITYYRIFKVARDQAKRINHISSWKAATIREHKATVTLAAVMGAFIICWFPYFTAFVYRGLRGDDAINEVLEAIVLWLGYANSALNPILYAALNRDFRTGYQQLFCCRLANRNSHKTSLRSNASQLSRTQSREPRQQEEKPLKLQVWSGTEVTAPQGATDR

[7] = target: T3, 5-hydroxytryptamine receptor 1A (Homo sapiens, UniProt P08908); assay type: functional, cell-based
T3 sequence (P08908 whole entry): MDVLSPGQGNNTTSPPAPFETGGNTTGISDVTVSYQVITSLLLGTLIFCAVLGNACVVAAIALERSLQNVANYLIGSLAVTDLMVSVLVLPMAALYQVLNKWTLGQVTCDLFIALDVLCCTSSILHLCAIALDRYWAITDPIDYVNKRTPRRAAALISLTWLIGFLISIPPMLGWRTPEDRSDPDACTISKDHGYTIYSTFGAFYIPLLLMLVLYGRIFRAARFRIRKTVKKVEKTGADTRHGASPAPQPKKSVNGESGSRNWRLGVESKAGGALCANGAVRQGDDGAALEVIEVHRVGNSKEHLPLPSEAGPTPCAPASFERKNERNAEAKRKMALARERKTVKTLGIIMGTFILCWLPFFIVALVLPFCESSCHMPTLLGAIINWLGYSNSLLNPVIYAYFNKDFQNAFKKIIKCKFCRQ

[8] = target: T4, 5-hydroxytryptamine receptor 2B (Homo sapiens, UniProt P41595); assay type: functional, cell-based
T4 sequence (P41595 whole entry): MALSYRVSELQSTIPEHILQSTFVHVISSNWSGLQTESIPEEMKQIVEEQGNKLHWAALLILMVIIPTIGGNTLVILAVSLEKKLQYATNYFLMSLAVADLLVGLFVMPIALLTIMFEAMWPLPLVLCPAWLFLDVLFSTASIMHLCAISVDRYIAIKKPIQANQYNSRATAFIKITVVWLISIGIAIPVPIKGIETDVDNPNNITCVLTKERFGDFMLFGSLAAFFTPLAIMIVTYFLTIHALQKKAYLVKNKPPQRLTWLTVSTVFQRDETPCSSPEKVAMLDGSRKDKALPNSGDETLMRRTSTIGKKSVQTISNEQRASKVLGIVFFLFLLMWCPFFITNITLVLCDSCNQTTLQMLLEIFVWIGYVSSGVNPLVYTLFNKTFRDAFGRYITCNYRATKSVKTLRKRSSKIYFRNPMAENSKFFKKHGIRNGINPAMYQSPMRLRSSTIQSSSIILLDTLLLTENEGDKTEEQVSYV

[9] = target: T1, Alpha-1A adrenergic receptor; assay type: functional, cell-based; remark: listed apart in the source
Estrogen receptor = target: T5, Estrogen receptor (Homo sapiens, UniProt P03372)
T5 sequence (P03372 whole entry): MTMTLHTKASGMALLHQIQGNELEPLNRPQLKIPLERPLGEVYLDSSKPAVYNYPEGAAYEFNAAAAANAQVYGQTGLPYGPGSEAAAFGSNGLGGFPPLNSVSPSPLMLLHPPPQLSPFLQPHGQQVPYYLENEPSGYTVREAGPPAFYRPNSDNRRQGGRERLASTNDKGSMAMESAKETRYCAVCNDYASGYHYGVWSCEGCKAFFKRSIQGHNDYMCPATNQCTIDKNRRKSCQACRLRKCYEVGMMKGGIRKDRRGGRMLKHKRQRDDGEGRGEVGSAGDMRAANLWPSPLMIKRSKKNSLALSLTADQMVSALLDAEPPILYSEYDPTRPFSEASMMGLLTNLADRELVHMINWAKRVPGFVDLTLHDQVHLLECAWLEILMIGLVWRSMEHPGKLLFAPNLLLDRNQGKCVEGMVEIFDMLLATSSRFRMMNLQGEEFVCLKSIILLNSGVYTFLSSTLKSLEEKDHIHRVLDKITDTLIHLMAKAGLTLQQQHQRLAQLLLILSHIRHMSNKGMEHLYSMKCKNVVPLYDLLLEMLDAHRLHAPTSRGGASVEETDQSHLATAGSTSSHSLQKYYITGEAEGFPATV

Prothrombin = Prothrombin (Homo sapiens, UniProt P00734); assay type: functional
[10] = target: Gamma-aminobutyric acid receptor subunit alpha-1/alpha-2/beta-2/gamma-2 (Homo sapiens, UniProt P14867+P18507+P47869+P47870); assay type: protein-complex assay
Histamine H3 receptor = Histamine H3 receptor (Homo sapiens, UniProt Q9Y5N1)
Sequence of Histamine H3 receptor (Q9Y5N1 whole entry): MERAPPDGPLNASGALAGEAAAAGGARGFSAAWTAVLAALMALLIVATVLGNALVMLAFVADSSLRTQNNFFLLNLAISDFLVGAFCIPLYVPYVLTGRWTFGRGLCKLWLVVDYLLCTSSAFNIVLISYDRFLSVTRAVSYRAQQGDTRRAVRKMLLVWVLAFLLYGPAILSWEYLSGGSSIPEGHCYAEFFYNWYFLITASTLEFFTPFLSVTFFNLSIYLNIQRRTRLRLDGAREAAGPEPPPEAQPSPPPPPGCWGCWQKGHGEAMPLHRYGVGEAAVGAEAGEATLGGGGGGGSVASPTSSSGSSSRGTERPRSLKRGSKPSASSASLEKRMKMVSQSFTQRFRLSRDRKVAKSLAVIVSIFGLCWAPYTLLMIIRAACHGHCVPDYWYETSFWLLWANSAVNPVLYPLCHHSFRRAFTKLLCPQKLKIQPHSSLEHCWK

[11] = target: T4, 5-hydroxytryptamine receptor 2B; assay type: functional, cell-based; remark: listed apart in the source
[12] = target: cGMP-inhibited 3',5'-cyclic phosphodiesterase 3A (Homo sapiens, UniProt Q14432); assay type: functional
Sequence of cGMP-inhibited 3',5'-cyclic phosphodiesterase 3A (Q14432 whole entry): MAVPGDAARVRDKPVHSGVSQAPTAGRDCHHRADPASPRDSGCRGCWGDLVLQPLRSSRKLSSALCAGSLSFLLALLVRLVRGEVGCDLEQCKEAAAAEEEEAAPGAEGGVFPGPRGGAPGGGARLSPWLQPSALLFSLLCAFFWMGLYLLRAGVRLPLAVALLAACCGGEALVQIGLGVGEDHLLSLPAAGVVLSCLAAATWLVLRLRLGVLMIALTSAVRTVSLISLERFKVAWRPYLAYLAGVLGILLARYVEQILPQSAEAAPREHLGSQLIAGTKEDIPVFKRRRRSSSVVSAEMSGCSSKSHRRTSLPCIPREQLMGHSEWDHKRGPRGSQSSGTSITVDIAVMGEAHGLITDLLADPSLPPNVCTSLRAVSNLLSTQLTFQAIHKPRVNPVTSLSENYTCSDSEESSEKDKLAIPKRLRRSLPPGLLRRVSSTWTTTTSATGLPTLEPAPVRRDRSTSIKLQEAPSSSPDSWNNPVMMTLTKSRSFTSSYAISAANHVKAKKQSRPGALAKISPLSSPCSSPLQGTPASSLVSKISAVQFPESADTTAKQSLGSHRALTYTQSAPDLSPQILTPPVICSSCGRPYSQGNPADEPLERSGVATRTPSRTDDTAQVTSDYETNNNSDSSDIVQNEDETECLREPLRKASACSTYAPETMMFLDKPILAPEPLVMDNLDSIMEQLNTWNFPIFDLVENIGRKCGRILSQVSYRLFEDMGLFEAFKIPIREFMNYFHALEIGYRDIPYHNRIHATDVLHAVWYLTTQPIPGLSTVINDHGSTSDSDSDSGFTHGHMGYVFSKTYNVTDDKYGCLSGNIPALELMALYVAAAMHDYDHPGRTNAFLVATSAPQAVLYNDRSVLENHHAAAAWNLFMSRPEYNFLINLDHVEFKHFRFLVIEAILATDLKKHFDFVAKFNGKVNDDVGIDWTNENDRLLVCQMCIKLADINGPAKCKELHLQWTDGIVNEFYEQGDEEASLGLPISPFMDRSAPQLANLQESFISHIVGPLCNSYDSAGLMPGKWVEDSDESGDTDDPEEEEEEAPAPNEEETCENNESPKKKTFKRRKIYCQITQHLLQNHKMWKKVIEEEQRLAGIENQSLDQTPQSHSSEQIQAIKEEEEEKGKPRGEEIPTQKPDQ

Measured: AC50
Also: assay procedure not described here.

CCN(CC)C(=O)C1(c2ccccc2)CC1CN (stereo unspecified)
> 30 µM: [1] | [2] | [3] | [4] | [5] | [6] | Histamine H2 receptor | [7] | [8]

CN(C)C(=O)Oc1cccc([N+](C)(C)C)c1 [NEOSTIGMINE]
> 30 µM: [9] | Estrogen receptor | Prothrombin | [10] | Histamine H3 receptor | [11] | [12]
